Reference: ChEMBL document CHEMBL5215006, “Antitumor Activity of Piceamycin by Upregulation of N-Myc Downstream-Regulated Gene 1 in Human Colorectal Cancer Cells” (J Nat Prod, 2022)
Activity calls are given as the source filed them. The rule behind the calls is not given here.

How the values were obtained:
HCT-116 [1] = assay: Antitumor activity against human HCT-116 cells assessed as upregulation of NDRG1 gene expression at 0.075 to 0.3 uM incubated for 24 hrs by RT-PCR method; assay type: functional, cell-based; conditions: dose 0.075-0.3 µM, DDE = dose-dependent effect
HCT-116 [2] = assay: Cell cycle arrest in human HCT-116 cells assessed as accumulation at G0/G1 phase at 0.075 uM incubated for 24 hrs by RNaseA/propidium iodide staining based flow cytometry (reference value: 48.44 %); assay type: functional
HCT-116 [3] = assay: Cell cycle arrest in human HCT-116 cells assessed as accumulation at Sub-G1 phase at 0.15 uM incubated for 24 hrs by RNaseA/propidium iodide staining based flow cytometry (reference value: 3.66 %); assay type: functional
SW480 [4] = assay: Cell cycle arrest in human SW480 cells assessed as accumulation at G0/G1 phase at 0.7 uM incubated for 24 hrs by RNaseA/propidium iodide staining based flow cytometry (reference value: 54.49 %); assay type: functional
HCT-116 [5] = assay: Induction of apoptosis in human HCT-116 cells assessed as upregulation of cleaved PARP expression at 0.3 uM measured at 12 to 48 hrs by immunoblotting assay; assay type: functional, cell-based; conditions: time 12-48 hrs, TDE = time-dependent effect
HCT-116 [6] = assay: Induction of apoptosis in human HCT-116 cells assessed as late apoptotic cells at 0.075 uM incubated for 48 hrs by Annexin V-FITC/PI staining based flow cytometry analysis (Rvb= 3.18%); assay type: functional
HCT-116 [7] = assay: Induction of apoptosis in human HCT-116 cells assessed as viable cells at 0.15 uM incubated for 48 hrs by Annexin V-FITC/PI staining based flow cytometry analysis (Rvb= 94.18%); assay type: functional; conditions: read-out: Activity
HCT-116 [8] = assay: Induction of apoptosis in human HCT-116 cells assessed as late apoptotic cells at 0.3 uM incubated for 48 hrs by Annexin V-FITC/PI staining based flow cytometry analysis (Rvb= 3.18%); assay type: functional
SW480 [9] = assay: Anti-migratory activity against human SW480 cells assessed as upregulation of E-cadherin protein expression at 0.35 to 1.4 uM incubated for 24 hrs by immunoblotting assay; assay type: functional, cell-based; conditions: dose 0.35-1.4 µM

Q: Which Activity (HCT-116 [1]) does the source give for `C[C@@H]1\C=C/C=C/C=C\C=C\C=C\C(=O)C2=C(O)C(=O)C[C@@]2(C)/C=C/C=C\C=C/C(=O)NC1` here?
A: Its Activity is “Dde”.

Q: What about the Activity (HCT-116 [2]) of the same compound?
A: Its Activity is 48.48%.

Q: What about the Activity (HCT-116 [3]) of the same compound?
A: The Activity was 5.1%.

Q: And the Activity (SW480 [4])?
A: The Activity was 62.43%.

Q: And the Activity (HCT-116 [5])?
A: Its Activity is “Tde”.

Q: What about the Activity (HCT-116 [6]) of the same compound?
A: Its Activity is 6.71%.

Q: And the viability at 0.15 µM (HCT-116 [7])?
A: The viability at 0.15 µM was 74.9%.

Q: And the Activity (HCT-116 [8])?
A: The Activity was 14.94%.

Q: What about the Activity (SW480 [9]) of the same compound?
A: Its Activity is “Active”.
